Reference: patent US20060223792A1, “Phenyl and pyridyl LTA4H modulators” (priority 2005, published 2006)
Where two headings read alike, the source gives them in different places.

Columns and labels:
[1] = test system: neutrophil influx (myeloperoxidase, MPO); assay: Murine arachidonic acid-induced inflammation model: neutrophil influx in ear (myeloperoxidase activity); format: in vivo, female Balb/c mice; details: Mus musculus, read-out: % Inh. MPO
Experimental: Murine Arachidonic Acid-Induced Inflammation Model
LTA4H inhibitor compounds of the present invention were dissolved in 20% cyclodextran/H2O at a concentration of 3 mg/mL. The solutions were administered by oral gavage to female Balb/c mice weighing approximately 20 grams each (0.2 mL per mouse, 30 mg of LTA4H inhibitor compound per kg). Sixty minutes after being administered an LTA4 inhibitor, each mouse received topical application of 20 μL of arachidonic acid (100 mg/mL in acetone) to the left ear and 20 μL of acetone only to the right ear. After 3 h, the mice were sacrificed, blood was withdrawn in heparinized syringes, and 8 mm ear biopsies were taken. Ear biopsies were weighed to determine edema and then frozen at −80° C. until needed for determination of neutrophil influx.
Neutrophil influx was quantified by measuring the activity of myeloperoxidase (MPO), a neutrophil-specific enzyme. The ear biopsies were homogenized in 0.5 mL extraction buffer (0.3 M sucrose, 0.22% (w/v) hexadecyl trimethyl ammonium bromide (CTAB), and 2.5 mM citrate prepared from 0.5 M citrate stock solution (pH 5.0)). Debris was removed by centrifugation at 14000×g for 10 min. Aliquots of 10 μL of the resulting supernatant were added to wells of a microtiter plate, along with 90-μL aliquots of dilution buffer (10 mM citrate, 0.22% CTAB), followed by addition of 20 μL TMB liquid substrate system (Sigma Chemical Co.) to each sample well. The microtiter plate contents were held at rt for 1 h. The reaction was stopped by addition of 100 μL 1 M H2SO4 to each sample well, and the myeloperoxidase activity in each sample was determined from the absorbance at 405 nm. The background value from the right ear, treated only with acetone, was subtracted from that for the left ear, treated with arachidonic acid in acetone, for each animal. The percent inhibition of neutrophil influx (% lnh. MPO) by compounds of the invention was determined by comparison to animals treated identically, except that the solution administered by oral gavage was devoid of inhibitor compound.

[2] = test system: LTB4 production by calcium ionophore-stimulated murine blood; assay: LTB4 production by calcium ionophore-stimulated murine blood for LTA4H inhibitor activity; format: cell-based, CD-1 mice; details: diluted CD-1 mouse whole blood, calcium ionophore A23187, LTB4 by enzyme-linked immunoassay
Experimental: LTB4 Production by Calcium Ionophore-Stimulated Murine Blood for LTA4H Inhibitor Activity
CD-1 mice were sacrificed, and blood was collected in heparin-containing syringes by cardiac puncture. The blood was diluted 1:15 with RPMI-1640 medium, and 200-μL aliquots of the diluted blood were added to wells of a 96-well microtiter plate. LTA4H inhibitor test compounds were prepared at different concentrations in RPMI-1640 medium containing […], and 20 μL of each test solution was added to a well containing diluted whole blood (final DMSO concentration of 0.1%). After the microtiter plate contents were incubated for 15 min at 37° C. in a humidified incubator, calcium ionophore A23187 (Sigma Chemical Co., St. Louis, Mo.) was added to each sample well (final concentration=20 ng/mL). The incubation was continued under the same conditions for an additional 10 min to allow LTB4 formation. The reaction was terminated by centrifugation (833×g, 10 min at 4° C.), and supernatants were analyzed for LTB4 by a commercially available enzyme-linked immunoassay (Cayman Chemical Co.) according to the manufacturer's instructions. Positive controls, under essentially identical conditions but without addition of an inhibitor compound, and negative unstimulated controls, containing all assay components except calcium ionophore, were routinely run in each experiment. IC50 values were determined by fitting the activity data at different compound concentrations to a 4-parameter equation using the Grafit program (Erithacus software).

[3] = 30 mg/kg oral gavage 60 min before topical arachidonic acid to ear, female Balb/c mice, ear biopsies after 3 h

| Compound | inhibition in vivo at 30 mg/kg ([1]; po, 3 h) | IC50 [2] | inhibition in vivo at 30 mg/kg [1, 3] |
| --- | --- | --- | --- |
| CN(C(=O)Oc1ccc(OCCN2CCC(O)(c3ccccc3)CC2)cc1)c1ccccc1 [Example 40, Methyl-phenyl-carbamic acid 4-[2-(4-hydroxy-4-phenyl-piperidin-1-yl)-ethoxy]-phenyl ester] | 75% | 150 nM | – |
| O=C(O)C1CCN(CCc2ccc(OCCc3ccccc3)cc2)CC1 [Example 81, 1-[2-(4-Phenethyloxy-phenyl)-ethyl]-piperidine-4-carboxylic acid] | – | 181 nM | 64% |
| O=C(O)C1CCN(Cc2ccc(OCCc3ccccc3)cc2)CC1 [Example 96, 1-(4-Phenethyloxy-benzyl)-piperidine-4-carboxylic acid] | – | 7 nM | 95% |
| O=C1CCCN1C1CCN(Cc2ccc(OCCc3ccccc3)cc2)CC1 [Example 99, 1-[1-(4-Phenethyloxy-benzyl)-piperidin-4-yl]-pyrrolidin-2-one] | – | 123 nM | 17% |
| O=C(O)C1CCN(Cc2ccc(OCCCc3ccccc3)cc2)CC1 [Example 112, 1-[4-(3-Phenyl-propoxy)-benzyl]-piperidine-4-carboxylic acid] | – | 10 nM | 79% |
| O=C(O)C1CCN(CCOc2ccc(OCCCc3ccccc3)cc2)CC1 [Example 117, 1-{2-[4-(3-Phenyl-propoxy)-phenoxy]-ethyl}-piperidine-4-carboxylic acid] | – | 79 nM | 62% |
